Results on three molecules are retold here after ChEMBL document CHEMBL1131355 (Bioorg Med Chem Lett, 1998).

Chain of 5-hydroxytryptamine receptor 2A (P14842 whole entry): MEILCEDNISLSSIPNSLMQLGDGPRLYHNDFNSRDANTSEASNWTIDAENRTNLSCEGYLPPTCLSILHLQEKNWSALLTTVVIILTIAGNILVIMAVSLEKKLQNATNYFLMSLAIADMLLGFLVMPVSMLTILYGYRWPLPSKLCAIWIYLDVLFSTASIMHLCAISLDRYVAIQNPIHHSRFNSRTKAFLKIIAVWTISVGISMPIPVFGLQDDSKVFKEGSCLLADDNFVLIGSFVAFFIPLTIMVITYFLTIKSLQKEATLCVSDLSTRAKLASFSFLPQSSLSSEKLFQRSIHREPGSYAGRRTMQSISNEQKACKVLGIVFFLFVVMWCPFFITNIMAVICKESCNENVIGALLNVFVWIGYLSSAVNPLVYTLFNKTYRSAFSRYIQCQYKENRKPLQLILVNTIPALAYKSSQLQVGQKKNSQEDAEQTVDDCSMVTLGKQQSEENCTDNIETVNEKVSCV

The assay addresses 5-hydroxytryptamine receptor 2A (Rattus norvegicus, UniProt P14842). The experiment in a line: biochemical. The class given is tissue-based, Frontal cortex, Membrane.
Description: Compound was measured for the inhibition of [3H]ketanserin binding to rat frontal cortex membrane (5-HT2A receptor)
Broadly, the Ki is the equilibrium dissociation constant of an inhibitor or competing ligand from its target. The molecule `O=C1CC(CN2CCC(C(=O)c3ccc(F)cc3)CC2)Cc2[nH]c3ccccc3c21` (stereo not drawn) had a Ki of 9.12 nM. The figure for `COc1ccccc1N1CCN(CC2CC(=O)c3c([nH]c4ccccc34)C2)CC1` (stereo not drawn) is 631 nM; for `O=C1CC(CN2CCC(c3noc4cc(F)ccc34)CC2)Cc2[nH]c3ccccc3c21` (stereo not drawn) it is 1.58 nM.
